Consider two compounds from patent US20240389885A1, “DAILY FASTING METHANE TO DETECT INTESTINAL METHANOGEN OVERGROWTH AND MONITOR TREATMENT RESPONSE” (Cedars-Sinai Medical Center, priority 2021, published 2024).

For test [1], the system named is subjects with IBS-C and IMO. The test is described as follows: EASE-DO randomized double-blind placebo-controlled trial (NCT03763175). In kind it is in vivo, human. Conditions: 14-week trial, adult patients with IBS-C and IMO, single daily oral doses vs placebo. From the text:
To evaluate the accuracy and temporal stability of SMM, and to assess its correlation with stool M. smithii loads, we analyzed data from a randomized double-blind placebo-controlled trial: Efficacy and Safety of Single, Daily Oral Doses of SYN-010 Compared to Placebo in Adult Patients with IBS-C (EASE-DO, NCT03763175).
Trial details: Efficacy and Safety of Single, Daily Oral Doses of SYN-010 Compared to Placebo in Adult Patients with IBS-C (EASE-DO, NCT03763175) was a 14-week single-center randomized double-blind placebo-controlled trial evaluating the effects of lovastatin lactone on subjects with IBS-C and IMO. Subjects were excluded if they were on statins, fibrates, niacin, narcotics, laxatives, tegaserod, lubiprostone, linaclotide, metoclopramide, prucalopride, domperidone, plecanatide, CandiBactin, Atrantil, Allimax/Allimed, antibiotics within 2 months and opioids within 3 months prior to the study. If subjects were on probiotics or fiber supplements, they were asked to not change their dose. […] All subjects enrolled in this study completed a 2-hour breath test at their initial visit and their weekly complete spontaneous bowel movement (CSBM) and spontaneous bowel movement (SBM) were recorded. After recording their baseline CSBM and SBM for 2 weeks, subjects returned to the lab and their SMM and stool samples were collected (FIG. 1). […]

Test [2] relates to canine small bowel transit. Conditions: infusion of CH4, canine; cited from earlier work.

`CC[C@H](C)C(=O)O[C@H]1C[C@@H](C)C=C2C=C[C@H](C)[C@H](CC[C@@H]3C[C@@H](O)CC(=O)O3)[C@H]21` [SYN-010, lovastatin lactone]: the “primary endpoint, interim futility analysis” value in test [1] is on record as “not meeting the primary endpoint”. For `C` [CH4, methane], the “effect on small bowel transit” value in test [2] is “slows canine small bowel transit”.
